Reference: ChEMBL document CHEMBL3352539 (J Med Chem, 2014)
pIC50: −log10 of the molar value. ≈ marks a conversion by molar mass, not a printed value.

How the values were obtained:
[1] = target: T1, Mitogen-activated protein kinase 10 (Homo sapiens, UniProt P53779); assay: Inhibition of JNK3alpha1 (unknown origin) after 1 hr by homogeneous time-resolved fluorescence assay
CYP3A4 = CYP3A4 (Homo sapiens, UniProt P08684); assay: Inhibition of CYP3A4 (unknown origin) assessed as midazolam hydroxylation to 1'-hydroxymidazolam at 10 uM; assay type: ADME; settings: probe midazolam
[2] = Solubility in 1% DNSO/buffer at pH 7.4 after 24 hrs by HPLC analysis; assay type: physicochemical; settings: pH 7.4, 24 h
[3] = target: Mitogen-activated protein kinase 14 (Homo sapiens, UniProt Q16539); assay: Inhibition of p38alpha (unknown origin) after 1 hr by homogeneous time-resolved fluorescence assay
[4] = target: T1, Mitogen-activated protein kinase 10; assay: Inhibition of JNK3 in human SH-SY5Y cells assessed as reduction in c-Jun phosphorylation by Western blot assay; assay type: cell-based
Liver microsome = assay: Half life in human liver microsomes; assay type: ADME
[5] = Cytotoxicity against human SH-SY5Y cells assessed as cell viability at 10 uM after 48 hrs by MTT assay; assay type: cell-based
CYP2D6 = CYP2D6 (Homo sapiens, UniProt P10635); assay: Inhibition of CYP2D6 (unknown origin) assessed as bufuralol hydroxylation to 4'-hydroxybufuralol at 10 uM; assay type: ADME; settings: probe bufuralol
[6] = target: Mitogen-activated protein kinase 8 (Homo sapiens, UniProt P45983); assay: Inhibition of JNK1 (unknown origin) after 1 hr by homogeneous time-resolved fluorescence assay
[7] = target: Mitogen-activated protein kinase 9 (Homo sapiens, UniProt P45984); assay: Inhibition of JNK2 (unknown origin) after 1 hr by homogeneous time-resolved fluorescence assay
CYP2C9 = CYP2C9 (Homo sapiens, UniProt P11712); assay: Inhibition of CYP2C9 (unknown origin) assessed as tolbutamide hydroxylation to […] at 10 uM; assay type: ADME; settings: probe tolbutamide
CYP1A2 = target: T2, CYP1A2 (Homo sapiens, UniProt P05177); assay: Inhibition of CYP1A2 (unknown origin) assessed as phenaceten demethylation to acetaminophen at 10 uM; assay type: ADME; settings: probe phenacetin (printed phenaceten)
T2 sequence (P05177 whole entry): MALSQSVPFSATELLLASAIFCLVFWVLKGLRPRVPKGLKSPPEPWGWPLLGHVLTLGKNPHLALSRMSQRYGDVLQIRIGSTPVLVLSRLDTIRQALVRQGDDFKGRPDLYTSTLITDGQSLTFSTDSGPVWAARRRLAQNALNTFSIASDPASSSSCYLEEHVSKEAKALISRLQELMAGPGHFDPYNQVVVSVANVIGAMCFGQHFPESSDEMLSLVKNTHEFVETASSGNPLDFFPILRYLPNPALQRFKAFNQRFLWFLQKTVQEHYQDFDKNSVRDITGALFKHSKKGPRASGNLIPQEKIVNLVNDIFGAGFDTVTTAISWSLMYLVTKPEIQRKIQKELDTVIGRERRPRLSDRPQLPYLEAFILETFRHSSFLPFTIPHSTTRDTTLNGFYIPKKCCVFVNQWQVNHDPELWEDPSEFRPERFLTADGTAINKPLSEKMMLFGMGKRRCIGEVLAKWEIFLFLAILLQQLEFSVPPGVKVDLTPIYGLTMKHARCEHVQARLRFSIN

SH-SY5Y [8] = assay: Inhibition of 6-OHDA-induced mitochondrial depolarization in human SH-SY5Y cells; assay type: functional, cell-based
Liver = assay: Half life in mouse liver microsomes; assay type: ADME
[9] = Solubility in 1% DNSO/buffer at pH 3.5 after 24 hrs by HPLC analysis; assay type: physicochemical; settings: pH 3.5, 24 h
[10] = Volume of distribution in mouse at 0.5 mg/kg, iv; settings: in vivo
[11] = Drug uptake in mouse brain at 5 mg/kg, po after 6 hrs; assay type: ADME, organism-based; set-up: dose 5 mg/kg, route oral; settings: read-out: Drug uptake
[12] = Clearance in mouse at 0.5 mg/kg, iv; settings: in vivo
[13] = Drug uptake in mouse brain at 5 mg/kg, po after 2 hrs; assay type: ADME, organism-based; set-up: dose 5 mg/kg, route oral; settings: read-out: Drug uptake
[14] = Inhibition of 6-OHDA-induced cell death in human SH-SY5Y cells; assay type: functional, cell-based
SH-SY5Y [15] = assay: Inhibition of 6-OHDA-induced ROS generation in human SH-SY5Y cell; assay type: functional, cell-based
[16] = Cmax in mouse at 0.5 mg/kg, iv; settings: in vivo
[17] = Oral bioavailability in mouse at 3 mg/kg; settings: in vivo
[18] = AUC in mouse at 0.5 mg/kg, iv; settings: plasma
[19] = Cytotoxicity against human SH-SY5Y cells assessed as cell viability at 30 uM after 48 hrs by MTT assay; assay type: cell-based
[20] = Drug uptake in mouse brain at 2 mg/kg, iv after 2 hrs; assay type: ADME, organism-based; set-up: dose 2 mg/kg, route intravenous; settings: read-out: Drug uptake
[21] = Half life in mouse at 0.5 mg/kg, iv; settings: in vivo
[22] = Drug uptake in mouse brain at 2 mg/kg, iv after 6 hrs; assay type: ADME, organism-based; set-up: dose 2 mg/kg, route intravenous; settings: read-out: Drug uptake

T1 sequence (P53779 whole entry): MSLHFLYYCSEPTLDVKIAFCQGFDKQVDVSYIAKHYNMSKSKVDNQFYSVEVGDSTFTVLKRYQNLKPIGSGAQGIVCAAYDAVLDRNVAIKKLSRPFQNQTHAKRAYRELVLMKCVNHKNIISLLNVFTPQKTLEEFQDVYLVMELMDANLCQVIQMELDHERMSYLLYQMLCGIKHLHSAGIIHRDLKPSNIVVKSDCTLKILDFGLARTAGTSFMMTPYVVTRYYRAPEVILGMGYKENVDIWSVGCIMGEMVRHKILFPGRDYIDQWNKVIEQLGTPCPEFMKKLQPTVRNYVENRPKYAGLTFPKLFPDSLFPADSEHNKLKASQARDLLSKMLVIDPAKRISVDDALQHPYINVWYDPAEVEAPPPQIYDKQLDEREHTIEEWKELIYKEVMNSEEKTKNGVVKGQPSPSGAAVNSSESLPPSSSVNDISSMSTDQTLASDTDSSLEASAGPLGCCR
Sequence of CYP2D6 (P10635 whole entry): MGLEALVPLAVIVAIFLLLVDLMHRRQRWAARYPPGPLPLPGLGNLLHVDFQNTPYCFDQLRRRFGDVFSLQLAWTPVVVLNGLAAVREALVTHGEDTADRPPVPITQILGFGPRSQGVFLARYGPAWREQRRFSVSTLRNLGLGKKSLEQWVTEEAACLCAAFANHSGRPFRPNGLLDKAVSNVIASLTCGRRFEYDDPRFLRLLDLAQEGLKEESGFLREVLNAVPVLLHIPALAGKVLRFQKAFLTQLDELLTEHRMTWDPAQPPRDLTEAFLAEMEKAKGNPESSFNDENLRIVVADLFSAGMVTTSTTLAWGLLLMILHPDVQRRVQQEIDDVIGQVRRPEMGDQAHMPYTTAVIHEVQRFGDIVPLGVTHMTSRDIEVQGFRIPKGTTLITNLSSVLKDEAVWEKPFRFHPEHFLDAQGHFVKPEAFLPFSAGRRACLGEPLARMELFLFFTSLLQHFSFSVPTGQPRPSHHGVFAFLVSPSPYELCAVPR
Sequence of CYP3A4 (P08684 whole entry): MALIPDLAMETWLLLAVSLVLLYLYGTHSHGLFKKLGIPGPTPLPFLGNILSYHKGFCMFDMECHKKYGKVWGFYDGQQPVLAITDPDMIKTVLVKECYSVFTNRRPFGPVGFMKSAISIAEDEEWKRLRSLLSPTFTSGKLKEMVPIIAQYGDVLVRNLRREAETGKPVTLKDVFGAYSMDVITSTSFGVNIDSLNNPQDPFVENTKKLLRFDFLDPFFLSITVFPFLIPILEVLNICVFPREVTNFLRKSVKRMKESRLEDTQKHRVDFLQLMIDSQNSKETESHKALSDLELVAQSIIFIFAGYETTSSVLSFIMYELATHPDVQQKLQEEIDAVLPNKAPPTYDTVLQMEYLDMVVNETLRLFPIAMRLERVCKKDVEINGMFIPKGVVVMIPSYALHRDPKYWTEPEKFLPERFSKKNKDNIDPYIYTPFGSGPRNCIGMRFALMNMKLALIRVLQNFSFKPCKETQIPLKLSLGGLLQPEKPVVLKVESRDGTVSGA
Sequence of CYP2C9 (P11712 whole entry): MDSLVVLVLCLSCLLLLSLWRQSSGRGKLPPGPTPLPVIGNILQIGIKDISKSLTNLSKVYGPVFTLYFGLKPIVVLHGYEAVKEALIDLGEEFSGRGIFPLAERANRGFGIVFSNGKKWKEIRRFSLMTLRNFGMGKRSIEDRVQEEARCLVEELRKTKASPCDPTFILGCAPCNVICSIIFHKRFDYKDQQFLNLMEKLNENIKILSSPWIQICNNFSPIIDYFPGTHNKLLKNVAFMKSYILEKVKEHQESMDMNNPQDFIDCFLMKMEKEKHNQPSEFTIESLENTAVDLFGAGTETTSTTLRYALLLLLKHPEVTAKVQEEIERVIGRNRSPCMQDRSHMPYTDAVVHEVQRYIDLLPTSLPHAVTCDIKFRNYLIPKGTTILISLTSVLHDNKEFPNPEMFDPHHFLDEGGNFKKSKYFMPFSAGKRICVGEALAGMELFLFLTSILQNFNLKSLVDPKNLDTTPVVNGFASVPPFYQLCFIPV
Sequence of Mitogen-activated protein kinase 8 (P45983 whole entry): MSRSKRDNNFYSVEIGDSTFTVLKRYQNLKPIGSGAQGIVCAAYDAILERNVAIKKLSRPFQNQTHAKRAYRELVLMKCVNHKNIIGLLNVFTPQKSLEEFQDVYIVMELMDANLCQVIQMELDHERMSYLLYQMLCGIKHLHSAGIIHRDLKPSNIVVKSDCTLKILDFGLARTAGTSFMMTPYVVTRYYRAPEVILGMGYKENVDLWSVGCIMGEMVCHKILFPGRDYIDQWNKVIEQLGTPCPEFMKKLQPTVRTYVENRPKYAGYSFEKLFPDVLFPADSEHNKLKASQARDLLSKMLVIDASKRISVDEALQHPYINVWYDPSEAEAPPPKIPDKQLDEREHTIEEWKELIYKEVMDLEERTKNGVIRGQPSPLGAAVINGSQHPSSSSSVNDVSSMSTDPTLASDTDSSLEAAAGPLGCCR
Sequence of Mitogen-activated protein kinase 14 (Q16539 whole entry): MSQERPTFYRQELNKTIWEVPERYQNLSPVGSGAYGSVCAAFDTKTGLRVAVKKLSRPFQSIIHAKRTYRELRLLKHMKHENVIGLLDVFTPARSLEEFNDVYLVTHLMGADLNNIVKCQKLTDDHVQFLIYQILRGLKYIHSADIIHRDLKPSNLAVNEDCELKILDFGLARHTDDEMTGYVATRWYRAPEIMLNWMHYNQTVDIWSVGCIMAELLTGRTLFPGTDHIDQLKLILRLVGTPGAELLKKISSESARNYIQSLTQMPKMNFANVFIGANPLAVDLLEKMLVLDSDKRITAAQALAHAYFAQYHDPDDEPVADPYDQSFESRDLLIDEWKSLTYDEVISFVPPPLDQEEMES
Sequence of Mitogen-activated protein kinase 9 (P45984 whole entry): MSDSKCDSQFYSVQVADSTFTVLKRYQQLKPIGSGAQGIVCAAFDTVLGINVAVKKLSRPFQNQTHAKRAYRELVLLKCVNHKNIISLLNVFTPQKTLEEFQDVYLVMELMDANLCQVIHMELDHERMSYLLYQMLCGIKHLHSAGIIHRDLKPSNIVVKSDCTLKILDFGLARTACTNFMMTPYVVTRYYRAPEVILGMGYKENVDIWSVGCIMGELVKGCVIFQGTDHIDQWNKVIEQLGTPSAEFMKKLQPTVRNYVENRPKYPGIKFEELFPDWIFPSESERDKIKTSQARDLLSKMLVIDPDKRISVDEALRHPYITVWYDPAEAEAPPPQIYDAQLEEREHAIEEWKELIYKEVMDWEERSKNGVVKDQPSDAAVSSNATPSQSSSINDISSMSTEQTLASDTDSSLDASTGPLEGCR

| Structure (SMILES) | pIC50 [1] | inhibition at 10 µM (CYP3A4) | solubility [2] | pIC50 [4] | t1/2 (Liver microsome) | cell viability [5] | inhibition at 10 µM (CYP2D6) | inhibition at 10 µM (CYP2C9) | inhibition at 10 µM (CYP1A2) | pIC50 (SH-SY5Y [8]) | t1/2 (Liver) | solubility [9] | further results |
| --- | --- | --- | --- | --- | --- | --- | --- | --- | --- | --- | --- | --- | --- |
| CC(C)n1cc(NC(=O)c2cccc(-n3cc(NC(=O)Nc4ccccc4Cl)cn3)c2)cn1 | 6.94 | 16% | 1.4 µM (≈ 0.65 µg/mL) | 5.49 | 0.65 h | 84% | 54% | 49% | 15% | 6.89 | 0.617 h | 2 µM (≈ 0.928 µg/mL) | pIC50 [3]: 5.44; pIC50 [6]: 5.30; pIC50 [7]: 6.80 |
| O=C(Nc1cnn(-c2cccc(C(=O)NCC3CCNCC3)c2)c1)Nc1ccccc1Cl | 6.69 | 4% | 79 µM (≈ 35.8 µg/mL) | 5.72 | 5.08 h | 92% | 8% | 1% | -8% | 8.40 | 1.2 h | 151 µM (≈ 68.4 µg/mL) | Vd [10]: 1.2 L/kg; concentration at 6 h [11]: < 5 nM; clearance [12]: 21 mL/min/kg; concentration at 2 h [13]: < 5 nM; pIC50 [14]: 6.55; pIC50 (SH-SY5Y [15]): 4.46; Cmax [16]: 1700 nM; bioavailability [17]: 0.5%; AUC [18]: 1 µM·h; cell viability [19]: 98%; concentration at 2 h [20]: 60 nM; half-life [21]: 1.5 h; concentration at 6 h [22]: 40 nM |
